According to patent US20120245099A1, “APOPTOSIS INDUCER” (NIHON UNIVERSITY, priority 2009, published 2012):

Experiments:
Cos cells [1] = assay: LDH activity in supernatant of Cos cells transformed with cDNA for Del-1 or its parts (Example 7); assay type: cell-based; details: APtag4 vector, medium replaced 24 hours after gene transfer, measured after further one hour
Description: cDNA for full-length Del-1 (SEQ ID NO: 4) was integrated into an AP expression vector (APtag4) and then introduced into cultured Cos cells. Likewise, cDNA for a part of Del-1 was also integrated into APtag4 and then introduced into cultured Cos cells. As a control, an AP expression vector free from the above cDNA for full-length Del-1 or a part thereof was used. It should be noted that the members each used as a part of Del-1 were EGF-like domains in the full-length Del-1 protein, i.e., EGF1 (E1; cDNA: SEQ ID NO: 26, amino acid sequence: SEQ ID NO: 27), EGF2 (E2; cDNA: SEQ ID NO: 28, amino acid sequence: SEQ ID NO: 29) and EGF3 (E3; cDNA: SEQ ID NO: 6, amino acid sequence: SEQ ID NO: 7), a fusion protein between discoidin I-like domains, i.e., Discoidin1 and Discoidin2 (C1C2; cDNA: SEQ ID NO: 30, amino acid sequence: SEQ ID NO: 31), an amino acid substitution (D136E) mutant of the above full-length Del-1 (Del1m; cDNA: SEQ ID NO: 32, amino acid sequence: SEQ ID NO: 33), as well as an amino acid substitution (D136E) mutant of E3, i.e., E3 D136E (E3m; cDNA: SEQ ID NO: 34, amino acid sequence: SEQ ID NO: 35). […] At 24 hours after gene transfer, the medium in each case was replaced with fresh culture medium and, after further one hour, the supernatant was measured for LDH activity. A cell lysate was prepared for each case and measured for LacZ activity. […]

Cos cells [2] = assay: LDH activity in supernatant of Cos cells transformed with E3, E3 mutants or F IX EGF domain (Example 9); assay type: cell-based; details: APtag4 vector, medium replaced 4 hours after gene transfer, measured after further 24 hours
Description: cDNA for E3 (a part of Del-1) or an amino acid substitution mutant thereof was integrated into an AP expression vector (APtag4) and then introduced into cultured Cos cells. Likewise, cDNA for the EGF domain of blood coagulation factor IX (F IX; cDNA: SEQ ID NO: 24, amino acid sequence: SEQ ID NO: 25) was also integrated into APtag4 and then introduced into cultured Cos cells. As a control, an AP expression vector free from the above cDNAs for E3 and so on was used. It should be noted that the amino acid substitution mutants of E3 used for the above purpose were E3 D136E (cDNA: SEQ ID NO: 34, amino acid sequence: SEQ ID NO: 35), E3 D136N (cDNA: SEQ ID NO: 36, amino acid sequence: SEQ ID NO: 37) and E3 Y141F (cDNA: SEQ ID NO: 38, amino acid sequence: SEQ ID NO: 39). […] At 4 hours after gene transfer, the medium in each case was replaced with fresh culture medium and, after further 24 hours, the supernatant was measured for LDH activity. A cell lysate was prepared for each case and measured for LacZ activity. […]

[3] = test system: MEL cells (mouse leukemia cells); assay: Recombinant E3 protein added to cells, LDH activity in culture supernatant (Example 11); assay type: cell-based; details: MEL cells (floating), 1 ng/ml or 5 ng/ml, 24 hours after addition
Cos cells [4] = assay: Concentration dependence of recombinant E3 protein, LDH activity in culture supernatant (Example 10); assay type: cell-based; details: 24 hours after addition
Description: A recombinant E3 protein produced from transformed E. coli was added at different concentrations (0 to 2.0 ng/ml) to cultured Cos cells. At 24 hours after addition, the culture supernatants were each measured for LDH activity.

Cos cells [5] = assay: Recombinant E3 protein added to cultured Cos cells, H33342 staining (Example 8); assay type: cell-based; details: recombinant protein from E. coli, 24 hours after addition
Description: To cultured Cos cells, a recombinant E3 protein produced from transformed E. coli was added. At 24 hours after addition, the cells were stained with H33342 and observed under a phase contrast microscope and a fluorescent microscope.

[6] = test system: P5 cells (vascular endothelial cell line); assay: Recombinant E3 protein added to cells, LDH activity in culture supernatant (Example 11); assay type: cell-based; details: P5 cells (adherent), 1 ng/ml or 5 ng/ml, 24 hours after addition
[7] = test system: CRL cells (human melanoma cells); assay: as above; assay type: cell-based; details: CRL cells (adherent), 1 ng/ml or 5 ng/ml, 24 hours after addition
[8] = test system: SCCKN cells (human oral squamous cell carcinoma-derived cell line); assay: Tumor-transplanted model mice, intratumoral gene transfer, tumor size over time (Example 12); assay type: in vivo; details: nude mice with SCCKN tumors, 10 μg DNA, Day0 to Day7
Description: For measurement of tumor size, the long axis and short axis of each tumor were measured with a ruler and multiplied by each other. In the figure, the tumor size (vertical axis) is expressed as a relative value (mean±SD), assuming that the value obtained at the time of gene transfer is set to 1.
Using tumor-transplanted model mice, a peptide containing the EGF3 domain, which is a part of Del-1, was studied for its therapeutic effect on tumor. More specifically, this peptide was verified as to whether its combined use with the FasL (Fas ligand) protein, whose antitumor effect has already been established, would enhance the antitumor effect when compared to FasL alone. […]
Then, 5×10^6 SCCKN cells (human oral squamous cell carcinoma-derived cell line) were injected under the dorsal skin of nude mice at 5 weeks of age. The mice were then measured over time for their tumor size. […]
The tumor size after gene transfer was measured over time (for 7 days: Day0 to Day7), and the results obtained are shown in FIG. 12.

E3m: amino acid substitution (D136E) mutant of E3, SEQ ID NO: 35 (CEAEPCRNGGICTELVANYSCECPGEFMGRNCQYK; listed as Mus musculus)
increase in LDH activity of supernatant, normalized by LacZ activity (Cos cells [1]): lost

F IX: EGF domain of blood coagulation factor IX, SEQ ID NO: 25 (CESNPCLNGGICKDDISSYECWCQVGFEGRNCEL; listed as Mus musculus)
LDH activity of supernatant, normalized by LacZ activity (Cos cells [2]): high LDH activity

E3: EGF3 EGF-like domain of Del-1, amino acids 123-157, SEQ ID NO: 7 (CEAEPCRNGGICTDLVANYSCECPGEFMGRNCQYK; listed as Mus musculus)
cytotoxic activity, LDH activity [3]: no cytotoxic activity | E3 protein concentration effective for apoptosis induction (LDH activity) (Cos cells [4]; 0 to 2.0 ng/ml): ≥ 0.4 ng/mL | E3 protein concentration above which the effect on apoptosis induction remained unchanged (Cos cells [4]): higher than 1 ng/ml | LDH activity of supernatant, normalized by LacZ activity (Cos cells [2]): high LDH activity | chromosome aggregation (H33342 nuclear staining) (Cos cells [5]): chromosomes were aggregated | cytotoxic activity (apoptosis induction), LDH activity [6]: showed cytotoxic activity | cytotoxic activity (apoptosis induction), LDH activity [7]: showed cytotoxic activity

B1: E3C1: fusion peptide between EGF3 domain and Discoidin1, amino acids 123 to 319 of mouse Del-1, SEQ ID NO: 42 (protein, listed as Mus musculus)
chain: CEAEPCRNGGICTDLVANYSCECPGEFMGRNCQYKCSGPLGIEGGIISNQQITASSTHRALFGLRKWYPYYARLNKKGLINAWTAAENDRWPWIQINLQRKMRVTGVITQGAKRIGSPEYIKSYKIAYSNDGKTWAMYKVKGTNEEMVFRGNVDNNTPYANSFTPPIKAQYVRLYPQICRRHCTLRMELLGCELSGC
antitumor effect (tumor size) of E3C1 cDNA together with FasL cDNA compared with FasL alone [8]: higher antitumor effect
